Assay results published in PubChem BioAssay AID1259407 (Chemical Carcinogenesis Research Information System (CCRIS), 2018).
The source made the active and inactive calls. No rule for the calls is given here.

Test system: CCRIS mutagenicity, Ames/micronucleus/aberration tests
Assay: CCRIS mutagenicity studies
[1] = Test System: AMES SALMONELLA TYPHIMURIUM, Strain/Indicator: TA97, Metabolic Activation: NONE, Method: PREINCUBATION
[2] = Test System: AMES SALMONELLA TYPHIMURIUM, Strain/Indicator: TA97, Metabolic Activation: RAT, LIVER, S-9, AROCLOR 1254 (30%), Method: PREINCUBATION
[3] = Test System: AMES SALMONELLA TYPHIMURIUM, Strain/Indicator: TA98, Metabolic Activation: HAMSTER, LIVER, S-9, AROCLOR 1254 (10%), Method: PREINCUBATION
[4] = Test System: AMES SALMONELLA TYPHIMURIUM, Strain/Indicator: TA98, Metabolic Activation: NONE, Method: PREINCUBATION
[5] = Test System: AMES SALMONELLA TYPHIMURIUM, Strain/Indicator: TA98, Metabolic Activation: RAT, LIVER, S-9, AROCLOR 1254 (10%), Method: PREINCUBATION
[6] = Test System: AMES SALMONELLA TYPHIMURIUM, Strain/Indicator: TA98, Metabolic Activation: RAT, LIVER, S-9, AROCLOR 1254 (30%), Method: PREINCUBATION
[7] = Test System: AMES SALMONELLA TYPHIMURIUM, Strain/Indicator: TA100, Metabolic Activation: HAMSTER, LIVER, S-9, AROCLOR 1254 (10%), Method: PREINCUBATION
[8] = Test System: AMES SALMONELLA TYPHIMURIUM, Strain/Indicator: TA100, Metabolic Activation: NONE, Method: PREINCUBATION
[9] = Test System: AMES SALMONELLA TYPHIMURIUM, Strain/Indicator: TA100, Metabolic Activation: RAT, LIVER, S-9, AROCLOR 1254 (10%), Method: PREINCUBATION
[10] = Test System: AMES SALMONELLA TYPHIMURIUM, Strain/Indicator: TA1535, Metabolic Activation: NONE, Method: PREINCUBATION
[11] = Test System: AMES SALMONELLA TYPHIMURIUM, Strain/Indicator: TA1537, Metabolic Activation: HAMSTER, LIVER, S-9, AROCLOR 1254 (10%), Method: PREINCUBATION
[12] = Test System: AMES SALMONELLA TYPHIMURIUM, Strain/Indicator: TA1537, Metabolic Activation: NONE, Method: PREINCUBATION
[13] = Test System: AMES SALMONELLA TYPHIMURIUM, Strain/Indicator: TA1537, Metabolic Activation: RAT, LIVER, S-9, AROCLOR 1254 (10%), Method: PREINCUBATION
[14] = Test System: AMES SALMONELLA TYPHIMURIUM, Strain/Indicator: TA1535, Metabolic Activation: RAT, LIVER, S-9, AROCLOR 1254 (10%), Method: PREINCUBATION

Row | SMILES | mutagenic call [1] | mutagenic call [2] | mutagenic call [3] | mutagenic call [4] | mutagenic call [5] | mutagenic call [6] | mutagenic call [7] | mutagenic call [8] | mutagenic call [9] | mutagenic call [10] | mutagenic call [11] | mutagenic call [12] | mutagenic call [13] | mutagenic call [14] | also measured
1 | Cc1cccc(C)c1N | inactive; negative | inactive; negative | inactive; negative | inactive; negative | inactive; negative | inactive; negative | inactive; negative | inactive; negative | inactive; negative | inactive; negative | inactive; negative | inactive; negative | inactive; negative |  | mutagenic call (End Point: IN VITRO CHROMOSOMAL ABERRATIONS, Test System: CHINESE HAMSTER OVARY CELLS, Metabolic Activation: NONE): active; positive; precipitation occurred at all doses; mutagenic call (End Point: IN VITRO CHROMOSOMAL ABERRATIONS, Test System: CHINESE HAMSTER OVARY CELLS, Metabolic Activation: RAT, LIVER, S-9, AROCLOR 1254): active; positive; precipitation occurred at 1200 and 1300 ug/ml; mutagenic call (Test System: AMES SALMONELLA TYPHIMURIUM, Strain/Indicator: TA97, Metabolic Activation: HAMSTER, LIVER, S-9, AROCLOR 1254 (30%), Method: PREINCUBATION): inactive; negative; mutagenic call (Test System: AMES SALMONELLA TYPHIMURIUM, Strain/Indicator: TA98, Metabolic Activation: HAMSTER, LIVER, S-9, AROCLOR 1254 (30%), Method: PREINCUBATION): inactive; negative; mutagenic call (Test System: AMES SALMONELLA TYPHIMURIUM, Strain/Indicator: TA98, Metabolic Activation: HAMSTER, LIVER, S-9, AROCLOR 1254, Method: PREINCUBATION): inactive; negative; mutagenic call (Test System: AMES SALMONELLA TYPHIMURIUM, Strain/Indicator: TA98, Metabolic Activation: RAT, LIVER, S-9, AROCLOR 1254, Method: PREINCUBATION): inactive; negative; mutagenic call (Test System: AMES SALMONELLA TYPHIMURIUM, Strain/Indicator: TA100, Metabolic Activation: HAMSTER, LIVER, S-9, AROCLOR 1254 (5%), Method: PREINCUBATION): inactive; negative; mutagenic call (Test System: AMES SALMONELLA TYPHIMURIUM, Strain/Indicator: TA100, Metabolic Activation: HAMSTER, LIVER, S-9, AROCLOR 1254, Method: PREINCUBATION): inactive; negative; mutagenic call (Test System: AMES SALMONELLA TYPHIMURIUM, Strain/Indicator: TA100, Metabolic Activation: RAT, LIVER, S-9, AROCLOR 1254 (5 OR 30%), Method: PREINCUBATION): inactive; negative; mutagenic call (Test System: AMES SALMONELLA TYPHIMURIUM, Strain/Indicator: TA100, Metabolic Activation: RAT, LIVER, S-9, AROCLOR 1254, Method: PREINCUBATION): inactive; negative; mutagenic call (Test System: AMES SALMONELLA TYPHIMURIUM, Strain/Indicator: TA1535, Metabolic Activation: HAMSTER, LIVER, S-9, AROCLOR 1254 (5%), Method: PREINCUBATION): inactive; negative; mutagenic call (Test System: AMES SALMONELLA TYPHIMURIUM, Strain/Indicator: TA1535, Metabolic Activation: HAMSTER, LIVER, S-9, AROCLOR 1254, Method: PREINCUBATION): inactive; negative; mutagenic call (Test System: AMES SALMONELLA TYPHIMURIUM, Strain/Indicator: TA1535, Metabolic Activation: RAT, LIVER, S-9, AROCLOR 1254 (5%), Method: PREINCUBATION): inactive; negative; mutagenic call (Test System: AMES SALMONELLA TYPHIMURIUM, Strain/Indicator: TA1535, Metabolic Activation: RAT, LIVER, S-9, AROCLOR 1254 (10 OR 30%), Method: PREINCUBATION): inactive; negative; mutagenic call (Test System: AMES SALMONELLA TYPHIMURIUM, Strain/Indicator: TA1535, Metabolic Activation: RAT, LIVER, S-9, AROCLOR 1254, Method: PREINCUBATION): inactive; negative; mutagenic call (Test System: AMES SALMONELLA TYPHIMURIUM, Strain/Indicator: TA1537, Metabolic Activation: HAMSTER, LIVER, S-9, AROCLOR 1254, Method: PREINCUBATION): inactive; negative; mutagenic call (Test System: AMES SALMONELLA TYPHIMURIUM, Strain/Indicator: TA1537, Metabolic Activation: RAT, LIVER, S-9, AROCLOR 1254, Method: PREINCUBATION): inactive; negative
2 | c1ccc(OC2CO2)cc1 (stereo unspecified) |  |  |  |  |  |  |  |  |  |  |  |  |  |  | mutagenic call (Test System: AMES SALMONELLA TYPHIMURIUM, Strain/Indicator: TA98, Metabolic Activation: RAT LIVER MICROSOMES, Method: STANDARD PLATE): active; positive; mutagenic call (Test System: AMES SALMONELLA TYPHIMURIUM, Strain/Indicator: TA1535, Metabolic Activation: RAT LIVER MICROSOMES, Method: STANDARD PLATE): active; positive
3 | CC(C)CC(C)N (stereo unspecified) |  |  | inactive; negative | inactive; negative | inactive; negative |  | inactive; negative | inactive; negative | inactive; negative | inactive; negative | inactive; negative | inactive; negative | inactive; negative | inactive; negative | mutagenic call (Test System: AMES SALMONELLA TYPHIMURIUM, Strain/Indicator: TA1535, Metabolic Activation: HAMSTER, LIVER, S-9, AROCLOR 1254 (10%), Method: PREINCUBATION): inactive; negative
4 | O=[N+]([O-])c1cccc(-c2ccccc2)c1O |  |  |  | inactive; negative |  |  |  |  |  |  |  |  |  |  | 
5 | CCC(C)C(C)CO (stereo unspecified) | inactive; negative | inactive; negative |  | inactive; negative | inactive; negative | inactive; negative |  | inactive; negative | inactive; negative | inactive; negative |  |  |  | inactive; negative | mutagenic call (Test System: AMES SALMONELLA TYPHIMURIUM, Strain/Indicator: TA97, Metabolic Activation: HAMSTER, LIVER, S-9, AROCLOR 1254 (10 OR 30%), Method: PREINCUBATION): inactive; negative; mutagenic call (Test System: AMES SALMONELLA TYPHIMURIUM, Strain/Indicator: TA97, Metabolic Activation: RAT, LIVER, S-9, AROCLOR 1254 (10%), Method: PREINCUBATION): inactive; negative; mutagenic call (Test System: AMES SALMONELLA TYPHIMURIUM, Strain/Indicator: TA98, Metabolic Activation: HAMSTER, LIVER, S-9, AROCLOR 1254 (10 OR 30%), Method: PREINCUBATION): inactive; negative; mutagenic call (Test System: AMES SALMONELLA TYPHIMURIUM, Strain/Indicator: TA100, Metabolic Activation: HAMSTER, LIVER, S-9, AROCLOR 1254 (10 OR 30%), Method: PREINCUBATION): inactive; negative; mutagenic call (Test System: AMES SALMONELLA TYPHIMURIUM, Strain/Indicator: TA100, Metabolic Activation: RAT, LIVER, S-9, AROCLOR 1254 (30%), Method: PREINCUBATION): inactive; negative; mutagenic call (Test System: AMES SALMONELLA TYPHIMURIUM, Strain/Indicator: TA1535, Metabolic Activation: HAMSTER, LIVER, S-9, AROCLOR 1254 (10 OR 30%), Method: PREINCUBATION): inactive; negative; mutagenic call (Test System: AMES SALMONELLA TYPHIMURIUM, Strain/Indicator: TA1535, Metabolic Activation: RAT, LIVER, S-9, AROCLOR 1254 (30%), Method: PREINCUBATION): inactive; negative
